Data reported in patent US11666589B2, “Pivarubicin and benzarubicin compositions” (Paradox Pharmaceuticals, Inc., priority 2020, dated 2023).

Legend:
[1] = tested on: J774.2 murine macrophage-like cells; experiment: Drug biotransformation analysis (HPLC of intracellular drug) in J774.2 cells; format: in vitro ADME
Text: (§1) Intracellular drug was extracted and analyzed by fluorescence HPLC as described previously.

[2] = tested on: 32D.3 murine myeloid cells; experiment: Drug biotransformation analysis (HPLC of intracellular drug) in 32D.3 cells; format: in vitro ADME
Text: as §1

[3] = tested on: 293 embryonic human kidney cells; experiment: Drug biotransformation analysis (HPLC of intracellular drug) in 293 cells; format: in vitro ADME
Text: as §1

[4] = tested on: 32D.3, J774.2 and 293 cells; experiment: Biotransformation to AD 288 after uptake into cells; format: in vitro ADME; settings: 8 hours after drug uptake into cells
Text: as §1

[5] = tested on: CEM/VLB-10; settings: CEM/VLB-10, selecting drug; cited from earlier work
[6] = tested on: CEM/VLB-100; settings: CEM/VLB-100, selecting drug; cited from earlier work

| SMILES | % Parent Compound ([1]; J774.2, 1 hr, 1 μM drug, 37° C.) [%] | % Parent Compound ([1]; J774.2, 8 hr (1 hr drug + 7 hours drug-free medium)) [%] | % Parent Compound ([2]; 32D.3, 1 hr, 1 μM drug, 37° C.) [%] | % Parent Compound ([2]; 32D.3, 8 hr (1 hr drug + 7 hours drug-free medium)) [%] | % Parent Compound ([3]; 293, 1 hr, 1 μM drug, 37° C.) [%] | % Parent Compound ([3]; 293, 8 hr (1 hr drug + 7 hours drug-free medium)) [%] | biotransformation to N-benzyladriamycin (AD 288) [4] | resistance [5] [fold] | resistance [6] [fold] |
| --- | --- | --- | --- | --- | --- | --- | --- | --- | --- |
| CCCCC(=O)OCC(=O)[C@]1(O)Cc2c(O)c3c(c(O)c2[C@@H](O[C@H]2C[C@H](NCc4ccccc4)[C@H](O)[C@H](C)O2)C1)C(=O)c1c(OC)cccc1C3=O [AD 198, N-Benzyladriamycin-14-valerate] | 90 | 50 | 90 | 56 | 80 | 50 | approximately 50% | – | – |
| CC[C@]1(O)C[C@@H]2CN(CCc3c([nH]c4ccccc34)[C@@](C(=O)OC)(c3cc4c(cc3OC)N(C)[C@H]3[C@@](O)(C(=O)OC)[C@H](OC(C)=O)[C@]5(CC)C=CCN6CC[C@]43[C@@H]65)C2)C1 [vinblastine] | – | – | – | – | – | – | – | 10.6 | 269 |
